Test results published in patent US20100173835A1, “Peptides for Treatment of Obesity” (Novo Nordisk A/S, priority 2008, published 2010).
Converted amounts (≈) assume the structure as drawn. Like-named read-outs stand apart in the source and are kept apart here. Where a SMILES comes first, the peptide text is derived from it. Bridges are numbered along the chain shown (N, C = ends). Side-chain parts run from the residue outwards. [ ]: non-standard residue; d: D form. The star is where a group is joined. Palmitoyl(16-(5-tetrazolyl)) = O=C(CCCCCCCCCCCCCCCc1nnn[nH]1)*; Lys(CH2CO2H)2 = N[C@@H](CCCCN(CC(=O)O)CC(=O)O)C(=O)O; Hyp = O=C(O)[C@@H]1C[C@@H](O)CN1; NTA = O=C(O)CN(CC(=O)O)CC(=O)*; Nle = CCCC[C@H](N)C(=O)O; Dap = NC[C@H](N)C(=O)O; AEEA = NCCOCCOCC(=O)O

What was measured:
[1] = target: T1, MC1 receptor (Homo sapiens, UniProt Q01726); assay: Assay (IV) Melanocortin Receptor 1 (MC1) binding assay
T1 construct: expressed in transfected cells
T1 sequence (Q01726 whole entry): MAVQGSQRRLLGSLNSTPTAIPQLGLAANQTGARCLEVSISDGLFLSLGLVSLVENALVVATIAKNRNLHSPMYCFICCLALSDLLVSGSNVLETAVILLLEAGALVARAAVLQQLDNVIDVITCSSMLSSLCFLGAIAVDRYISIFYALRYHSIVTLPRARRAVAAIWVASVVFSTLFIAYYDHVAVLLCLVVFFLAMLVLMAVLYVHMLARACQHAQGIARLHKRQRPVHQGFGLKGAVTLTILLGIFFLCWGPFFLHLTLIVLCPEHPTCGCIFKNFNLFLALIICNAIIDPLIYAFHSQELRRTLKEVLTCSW
How it was run: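 Competition binding used BHK cell membranes stably expressing MC1 (25 μg/ml) with 22 pM final ^125NDP-α-MSH in 25 mM HEPES pH 7.4, CaCl2, MgSO4, EDTA, 0.1% HSA (or ovalbumin), 0.005% Tween 20. After 90 min at 30° C., bound radioligand was filtered and counted, with binding curves fitted by non-linear regression.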

[2] = target: T2, human MC4 receptor (Homo sapiens, UniProt P32245); assay: Assay (V) Melanocortin Receptor 4 (MC4) binding assay; details: 125NDP-α-MSH binding, BHK cell membranes
T2 construct: expressed in transfected cells
T2 sequence (P32245 whole entry): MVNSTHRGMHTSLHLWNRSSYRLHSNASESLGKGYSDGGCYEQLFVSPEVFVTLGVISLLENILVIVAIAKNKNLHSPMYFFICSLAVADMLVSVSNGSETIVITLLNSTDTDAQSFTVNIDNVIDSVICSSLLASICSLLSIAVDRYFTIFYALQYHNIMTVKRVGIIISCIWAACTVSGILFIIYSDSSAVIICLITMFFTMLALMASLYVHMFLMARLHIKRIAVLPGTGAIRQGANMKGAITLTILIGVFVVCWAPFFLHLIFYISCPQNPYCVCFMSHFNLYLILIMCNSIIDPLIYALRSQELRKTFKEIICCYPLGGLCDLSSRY
How it was run: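 BHK membranes stably expressing human MC4 receptor were incubated with ^125NDP-α-MSH (≈79 pM final) and compound for 2 h at 25 °C, pH 7.0 HEPES buffer with HSA or ovalbumin. Filter-bound radioactivity was gamma counted. Binding curves were fitted by non-linear regression.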

[3] = tested on: ad libitum fed rat model; assay: Assay (I) efficacy testing on appetite, ad libitum fed rat model; assay type: in vivo
Experimental: Assay (I)—Experimental protocol for efficacy testing on appetite with MC4 analogues, using an ad libitum fed rat model. TAC:SPRD @mol rats or Wistar rats from M&B Breeding and Research Centre A/S, Denmark are used for the experiments. The rats have a body weight 200-250 g at the start of experiment. The rats arrive at least 10-14 days before start of experiment with a body weight of 180-200 g. Each dose of compound is tested in a group of 8 rats. […] When the animals arrive they are housed individually in a reversed light/dark phase (lights off 7:30 am, lights on 7:30 pm), meaning that lights are off during daytime and on during nighttime. […] During this period the animals are handled at least 3 times. The experiment is conducted in the rats' home cages. Immediately before dosing the rats are randomised to the various treatment groups (n 8) by body weight. They are dosed according to body weight at between 7:00 am and 7:45 am, with a 1-3 mg/kg solution administered intraperitoneally (ip), orally (po) or subcutaneously (sc). The time of dosing is recorded for each group. After dosing, the rats are returned to their home cages, where they then have access to food and water. […] At the end of the experimental session, the animals are euthanised. The individual data are recorded in Microsoft excel sheets. Outliers are excluded after applying the Grubbs statistical evaluation test for outliers, and the result is presented graphically using the GraphPad Prism program.

[4] = Solubility data of compounds in water over the pH range; assay type: physicochemical; details: read-out: Conc (solubility in water)
[5] = 125NDP-α-MSH binding, BHK cell membranes, read-out: Assay (IV) MC1 Ki

## CCCC[C@H](NC(=O)[C@H](CCCCNC(=O)CN(CC(=O)O)CC(=O)O)NC(=O)[C@H](Cc1c[nH]cn1)NC(=O)[C@H](CCC(N)=O)NC(=O)[C@H](CO)NC(=O)CNC(=O)COCCOCCNC(=O)CCCCCCCCCCCCCCCc1nnn[nH]1)C(=O)N[C@H]1CCC(=O)NCCCC[C@@H](C(N)=O)NC(=O)[C@H](Cc2c[nH]c3ccccc23)NC(=O)[C@H](CCCNC(=N)N)NC(=O)[C@@H](Cc2ccccc2)NC(=O)[C@@H]2C[C@@H](O)CN2C1=O [Example 1, (2-{2-[16-(Tetrazol-5-yl)hexadecanoylamino]ethoxy}ethoxy)acetyl-Gly-Ser-Gln-His-Lys(BCMA)-Nle-c[Glu-Hyp-D-Phe-Arg-Trp-Lys]-NH2] ({Palmitoyl(16-(5-tetrazolyl))-AEEA}-GSQHK(NTA)[Nle]E[Hyp][dF]RWK-NH2; lactam 7-12)
[1]; [5]
  Ki: > 10000 nM
[2]; read-out: Assay (V) MC4 [Ki]
  Ki: 0.4 nM
[3]; dosing 3 mg/kg
  Food consumption (% of vehicle) 24 h: 65 % of vehicle
  Food consumption (% of vehicle) 48 h: 72 % of vehicle

## CCCC[C@H](NC(=O)[C@H](CNC(=O)[C@H](Cc1c[nH]cn1)NC(=O)[C@H](CCC(N)=O)NC(=O)[C@H](CO)NC(=O)CNC(=O)COCCOCCNC(=O)CCCCCCCCCCCCCCCc1nnn[nH]1)NC(=O)CN(CC(=O)O)CC(=O)O)C(=O)N[C@H]1CCC(=O)NCCCC[C@@H](C(N)=O)NC(=O)[C@H](Cc2c[nH]c3ccccc23)NC(=O)[C@H](CCCNC(=N)N)NC(=O)[C@@H](Cc2ccccc2)NC(=O)[C@@H]2C[C@@H](O)CN2C1=O [Example 2, (2-{2-[16-(Tetrazol-5-yl)hexadecanoylamino]ethoxy}ethoxy)acetyl-Gly-Ser-Gln-His-β-Dap(BCMA)-Nle-c[Glu-Hyp-D-Phe-Arg-Trp-Lys]-NH2] ({NTA}-[Dap]([His-Gln-Ser-Gly-AEEA-Palmitoyl(16-(5-tetrazolyl))])[Nle]E[Hyp][dF]RWK-NH2; lactam 3-8)
[1]; [5]
  Ki: 5570 nM
[4]; pH 3.02, pH 3.02
  solubility at 3 days: 320 µM (≈ 670 µg/mL)
[4]; pH 3.84, pH 3.84
  solubility at 3 days: 421 µM (≈ 881 µg/mL)
[4]; pH 4.3, pH 4.3
  solubility at 3 days: 216 µM (≈ 452 µg/mL)
[4]; pH 4.64, pH 4.64
  solubility at 3 days: 49 µM (≈ 103 µg/mL)
[4]; pH 5.22, pH 5.22
  solubility at 3 days: 13 µM (≈ 27.2 µg/mL)
[4]; pH 6.55, pH 6.55
  solubility at 3 days: 14 µM (≈ 29.3 µg/mL)
[4]; pH 7.2, pH 7.2
  solubility at 3 days: 122 µM (≈ 255 µg/mL)
[4]; pH 7.36, pH 7.36
  solubility at 3 days: 251 µM (≈ 525 µg/mL)
[4]; pH 7.53, pH 7.53
  solubility at 3 days: 320 µM (≈ 670 µg/mL)
[4]; pH 7.81, pH 7.81
  solubility at 3 days: 77 µM (≈ 161 µg/mL)
[2]; read-out: Assay (V) MC4 [Ki]
  Ki: 3.43 nM
[3]; dosing 1 mg/kg
  Food consumption (% of vehicle) 24 h: 60 % of vehicle
  Food consumption (% of vehicle) 48 h: 71 % of vehicle

## CCCC[C@H](NC(=O)[C@H](CCCCN(CC(=O)O)CC(=O)O)NC(=O)[C@H](CO)NC(=O)[C@H](CCC(N)=O)NC(=O)[C@H](CO)NC(=O)CNC(=O)COCCOCCNC(=O)CCCCCCCCCCCCCCCc1nnn[nH]1)C(=O)N[C@H]1CCC(=O)NCCCC[C@@H](C(N)=O)NC(=O)[C@H](Cc2c[nH]c3ccccc23)NC(=O)[C@H](CCCNC(=N)N)NC(=O)[C@@H](Cc2ccccc2)NC(=O)[C@@H]2C[C@@H](O)CN2C1=O [Example 5, (2-{2-[16-(Tetrazol-5-yl)hexadecanoylamino]ethoxy}ethoxy)acetyl-Gly-Ser-Gln-Ser-Lys(biscarboxymethyl)-Nle-c[Glu-Hyp-D-Phe-Arg-Trp-Lys]-NH2] ({Palmitoyl(16-(5-tetrazolyl))-AEEA}-GSQS[Lys(CH2CO2H)2][Nle]E[Hyp][dF]RWK-NH2; lactam 7-12)
[1]
  Ki: > 10000 nM
[4]; pH 4.22, pH 4.22
  solubility at 3 days: 20 µM (≈ 40.5 µg/mL)
[4]; pH 4.55, pH 4.55
  solubility at 3 days: 21 µM (≈ 42.6 µg/mL)
[4]; pH 5.1, pH 5.10
  solubility at 3 days: 25 µM (≈ 50.7 µg/mL)
[4]; pH 5.23, pH 5.23
  solubility at 3 days: 30 µM (≈ 60.8 µg/mL)
[4]; pH 5.97, pH 5.97
  solubility at 3 days: 129 µM (≈ 262 µg/mL)
[4]; pH 6.29, pH 6.29
  solubility at 3 days: 239 µM (≈ 485 µg/mL)
[4]; pH 6.68, pH 6.68
  solubility at 3 days: 244 µM (≈ 495 µg/mL)
[4]; pH 7.03, pH 7.03
  solubility at 3 days: 245 µM (≈ 497 µg/mL)
[4]; pH 7.04, pH 7.04
  solubility at 3 days: 251 µM (≈ 509 µg/mL)
[2]; Assay (V) MC4 [Ki] (nM)
  Ki: 7.55 nM
[3]; dosing 1 mg/kg
  Food consumption (% of vehicle) 24 h: 81 % of vehicle
  Food consumption (% of vehicle) 48 h: 91 % of vehicle
